Data on 16 compounds can be found in ChEMBL document CHEMBL5365519, “Design and Characterization of 1,3-Dihydro-2H-benzo[d]azepin-2-ones as Rule-of-5 Compliant Bivalent BET Inhibitors” (ACS Med Chem Lett, 2023).

The target in data set [1] is T1, C-C motif chemokine 2 (Homo sapiens, UniProt P13500). Kind of data set: Inhibition of MCP-1 in LPS-stimulated human PBMC cells pretreated with compound for 30 mins followed by LPS-stimulation and measured after 10 mins by microplate analysis. It is filed as cell-based.
Data set [2] deals with T1, C-C motif chemokine 2. Kind of data set: Inhibition of MCP-1 in LPS-stimulated human whole blood pretreated with compound for 30 mins followed by LPS-stimulation and measured after 10 mins by microplate analysis. It counts as tissue-based.
The nature of data set [3]: Antiproliferative activity against human NMC 11060 cell assessed as inhibition of cell growth incubated for 72 hrs by cell-titer glo assay. It is filed as functional, cell-based. The settings on record: NMC 11060, 72 h.
The test system of the next data set is HL-60. Put plainly: Antiproliferative activity against human HL-60 cells assessed as inhibition of cell growth incubated for 72 hrs by cell-titer glo assay. It counts as functional, cell-based. The settings on record: HL-60, 72 h.
Data set [4] addresses T2, Bromodomain-containing protein 4 (Homo sapiens, UniProt O60885). Kind of data set: Inhibition of histone binding to BRD4 (unknown origin) expressed in HEK293 cells using histone H3.3 as substrate incubated for 18 to 24 hrs by nano-BRET analysis. It is filed as cell-based. A general note: BRET reads energy transfer from a luciferase to a nearby fluorophore.
Data set [5] addresses T2, Bromodomain-containing protein 4. Put plainly: Inhibition of BRD4 BD2 (unknown origin) by TR-FRET assay. In general terms: Time-resolved FRET reads energy transfer from a long-lived donor to a nearby acceptor.
Data set [6] shares this target. Put plainly: Inhibition of BRD4 BD1 (unknown origin) by TR-FRET assay.
Data set [7] has the same target. Put plainly: Inhibition of halo-tagged BRD4 (unknown origin) expressed in HEK293 cells incubated for 4 hrs by biosensor assay. It counts as cell-based.
Data set [8] in a line: Lipophilicity, logD of compound at pH 7.4 by HPLC analysis. It counts as physicochemical. Particulars: buffer.
The nature of data set [9]: Solubility of compound in simulated lung fluid at pH 6.9. It is filed as physicochemical.
For a further data set, the system named is MV4-11. Kind of data set: Antiproliferative activity against human MV4-11 cells assessed as inhibition of cell growth incubated for 72 hrs by cell-titer glo assay. It is filed as functional, cell-based. The settings on record: MV4-11, 72 h.

Converted amounts (≈) assume the structure as drawn.

T1 sequence (P13500 whole entry): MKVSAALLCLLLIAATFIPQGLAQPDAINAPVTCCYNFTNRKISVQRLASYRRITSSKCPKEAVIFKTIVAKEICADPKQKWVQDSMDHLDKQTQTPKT

Take `Cc1sc2c(c1C)C(c1ccc(Cl)cc1)=N[C@@H](CC(=O)OC(C)(C)C)c1nnc(C)n1-2`: the IC50 at C-C motif chemokine 2 [1] was 6.31 nM; at C-C motif chemokine 2 [2], 631 nM.

As for `COc1cc2c(cc1-c1c(C)noc1C)ncc1[nH]c(=O)n([C@H](C)c3ccccn3)c12`, the IC50 is 631 nM in [3], 39.8 nM at C-C motif chemokine 2 [1], 200 nM at C-C motif chemokine 2 [2] and 126 nM with HL-60.

Turning to `COCC(COC)n1c(-c2cc(C)c(=O)n(C)c2)nc2cc(N3CCOCC3)ccc21`, the IC50 on C-C motif chemokine 2 [1] is 7.94 nM; at C-C motif chemokine 2 [2], 25.1 nM.

`C[C@@H]1C(=O)N(C)CCN1CCOc1ccc(C2CCN(c3ccc4nncn4n3)CC2)cc1`: the IC50 in data set [4] is 398 nM; in data set [5], 39800 nM; on C-C motif chemokine 2 [1], 200 nM; in data set [6], 25100 nM; on C-C motif chemokine 2 [2] it was 2000 nM. In addition, in data set [7], the EC50 was 1000 nM.

With `COc1cc2c(cc1OC)[C@@H](C)C(=O)N(C)C=C2`, the IC50 at C-C motif chemokine 2 [1] was 50.1 nM; at C-C motif chemokine 2 [2], 1000 nM.

As for `C[C@H]1C(=O)N(C)C=Cc2cc(OCCCCCOc3ccc4c(c3)C=CN(C)C(=O)[C@@H]4C)ccc21`, the 50% inhibitory concentration (IC50) in data set [4] is 0.631 nM; in data set [5], 20 nM; on C-C motif chemokine 2 [1], below 2 nM; in [6], 39.8 nM; on C-C motif chemokine 2 [2], 12.6 nM. Besides, in data set [8], the logD was 7.4. The compound further came in with a solubility in data set [9] below 1 µg/mL. The same compound showed an EC50 in [7] of 7.94 nM.

As for `C[C@H]1C(=O)N(C)C=Cc2cc(OCCCCCCCOc3ccc4c(c3)C=CN(C)C(=O)[C@@H]4C)ccc21`, the IC50 was 1 nM in [4]; 39.8 nM in [5]; below 2 nM on C-C motif chemokine 2 [1]; 79.4 nM in data set [6]; 79.4 nM on C-C motif chemokine 2 [2]. Besides, in data set [8], the logD turned out to be 8.5. The compound also gave an EC50 in data set [7] of 3.98 nM.

Turning to `CC1C(=O)N(C)C=Cc2ccc(OCCCCCCOc3ccc4c(c3)C(C)C(=O)N(C)C=C4)cc21` (configuration not stated), the concentration for half-maximal inhibition (IC50) in data set [4] was above 1000 nM; in data set [5], at least 1580 nM; in [6], 3160 nM; on C-C motif chemokine 2 [2] it was 3980 nM. This compound also showed an EC50 in data set [7] of 1000 nM.

Consider `C[C@H]1C(=O)N(C)C=Cc2cc(OCCOc3ccc4c(c3)C=CN(C)C(=O)[C@@H]4C)ccc21`, for which the IC50 was 0.631 nM in [4]; 31.6 nM in data set [5]; 0.251 nM on C-C motif chemokine 2 [1]; 63.1 nM in data set [6]; 126 nM at C-C motif chemokine 2 [2]. This compound also registered a logD in [8] of 5.8. In [7], this compound gave an EC50 of 1.26 nM.

For the compound `C[C@H]1C(=O)N(C)C=Cc2cc(OCCCCOc3ccc4c(c3)C=CN(C)C(=O)[C@@H]4C)ccc21`, the IC50 in data set [4] is 0.316 nM; in data set [3], 0.794 nM; in [5], 6.31 nM; at C-C motif chemokine 2 [1], 0.0398 nM; in data set [6] it was 3.16 nM; at C-C motif chemokine 2 [2] it was 5.01 nM. Moreover, the IC50 with MV4-11 is 0.501 nM; with HL-60 it was 0.398 nM. The compound also returned a logD in [8] of 7.1. Besides, the concentration in solution in [9] (solubility) was 2 µg/mL (≈ 4.34 µM). Further, a half-maximal effect in data set [7] (EC50) was put at 1.58 nM.

Take `C[C@H]1C(=O)N(C)C=Cc2cc(OCCCOc3ccc4c(c3)C=CN(C)C(=O)[C@@H]4C)ccc21`: the IC50 in data set [4] was 15.8 nM; in data set [5], 39.8 nM; at C-C motif chemokine 2 [1], below 2 nM; in data set [6], 100 nM; at C-C motif chemokine 2 [2] it was 50.1 nM. For the same compound, the logD in data set [8] is 6.7. Also, in data set [9], the solubility is below 1 µg/mL. The compound also had an EC50 in [7] of 2.51 nM.

In turn, `CC1C(=O)N(C)C=Cc2ccc(OCCCCCOc3ccc4c(c3)C(C)C(=O)N(C)C=C4)cc21` (configuration not stated) registered a logD in [8] of 7.5. Also, the results for the IC50 (in [5]; in data set [6]; on C-C motif chemokine 2 [2]) were 3980 nM, 631 nM and 15800 nM, respectively.

As to `C[C@H]1C(=O)N(C)C=Cc2cc(CN3CCN(Cc4ccc5c(c4)C=CN(C)C(=O)[C@@H]5C)CC3)ccc21`, the IC50 in data set [4] is 0.501 nM; in [5], 25.1 nM; on C-C motif chemokine 2 [1], below 0.2 nM; in data set [6], 15.8 nM; on C-C motif chemokine 2 [2], 6.31 nM. In addition, the logD in data set [8] is 5.43. Also, the concentration in solution in data set [9] (solubility) was 465 µg/mL (≈ 959 µM). The compound further showed an EC50 in [7] of 2 nM.

In the case of `COc1nnc2ccc(N3CCC(c4ccc(OCCN5CCN(C)C(=O)[C@H]5C)cc4)CC3)nn12` [AZD-5153], the IC50 in data set [4] was 15.8 nM; in [5], 3160 nM; at C-C motif chemokine 2 [1], 3.16 nM; in [6], 398 nM; at C-C motif chemokine 2 [2] it was 15.8 nM. For the same compound, in data set [7], the EC50 was 15.8 nM.

As for `CC(=O)Nc1c(F)cc(C(=O)N[C@H]2CC[C@H](O)CC2)cc1O[C@@H](C)c1ccccc1` [GSK046], the pIC50 on C-C motif chemokine 2 [1] (pbmc) was 7.5.

Regarding `COCc1nc2cnc3cc(-c4c(C)noc4C)c(OC[C@H]4CCNC4)cc3c2n1[C@H](C)c1ccccc1` [GSK778], on C-C motif chemokine 2 [2], the IC50 was 158 nM.

In general, IC50 refers to the midpoint of a concentration-inhibition curve. The term EC50 denotes the concentration that produces a half-maximal response. Lower therefore signals a more potent agent. The logD is the decadic logarithm of the distribution of all forms, ionised or not, between an organic phase and buffer at a given pH. In general, solubility refers to how much of the substance goes into solution per volume. A high value points to a readily soluble substance. A word on the pIC50: it is −log10 of the IC50, conventionally taken in molar units.
